Active and inactive are the calls of the source.
Experiments:
[1] = molecular target: T1, Trace amine-associated receptor 1 (Homo sapiens, UniProt Q96RJ0); assay: Fluorescence-based cell-based high throughput dose response assay to identify agonists of the human trace amine associated receptor 1 (TAAR1).; type: functional
T1 sequence (Q96RJ0 whole entry): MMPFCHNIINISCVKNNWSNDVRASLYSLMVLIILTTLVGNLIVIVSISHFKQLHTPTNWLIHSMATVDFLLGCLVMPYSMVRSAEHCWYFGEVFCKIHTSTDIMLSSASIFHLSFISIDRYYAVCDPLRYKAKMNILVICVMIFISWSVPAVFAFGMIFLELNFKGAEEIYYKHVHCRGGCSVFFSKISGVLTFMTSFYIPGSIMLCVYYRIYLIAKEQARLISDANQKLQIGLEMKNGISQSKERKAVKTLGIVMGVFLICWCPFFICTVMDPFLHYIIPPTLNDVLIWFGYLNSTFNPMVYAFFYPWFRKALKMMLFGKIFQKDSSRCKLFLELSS

cells [2] = type: functional, cell-based
[3] = molecular target: T2, Heat shock factor protein 1 (Mus musculus, UniProt P38532); assay: HSF1 potentiators in luciferase reporter cells, confirmation, cell-based, NIH3T3, luminescence, dose retest (AID 435004); type: functional;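 note: stress induced by proteasome inhibitor MG132 added 30 min after compound; luciferase reporter driven by HSF1 response element in NIH3T3 cells; actives raise luminescence as potentiators of the MG132 stress response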
T2 sequence (P38532 whole entry): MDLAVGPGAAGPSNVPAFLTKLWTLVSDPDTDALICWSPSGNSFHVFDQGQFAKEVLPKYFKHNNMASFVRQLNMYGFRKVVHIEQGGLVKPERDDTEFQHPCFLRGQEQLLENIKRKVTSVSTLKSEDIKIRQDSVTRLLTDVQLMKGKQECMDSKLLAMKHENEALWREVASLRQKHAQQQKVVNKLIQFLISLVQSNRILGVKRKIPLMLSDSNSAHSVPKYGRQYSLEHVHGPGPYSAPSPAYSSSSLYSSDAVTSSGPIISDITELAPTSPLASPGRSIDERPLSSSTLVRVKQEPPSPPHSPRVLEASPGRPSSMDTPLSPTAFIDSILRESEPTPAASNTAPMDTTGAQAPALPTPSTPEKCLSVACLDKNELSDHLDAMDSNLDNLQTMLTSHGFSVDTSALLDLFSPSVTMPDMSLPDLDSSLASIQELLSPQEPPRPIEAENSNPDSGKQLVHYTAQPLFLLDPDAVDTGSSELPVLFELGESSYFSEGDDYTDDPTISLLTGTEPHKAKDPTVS

cells [4] = type: functional, cell-based; remark: listed apart in the source
[5] = molecular target: T1, Trace amine-associated receptor 1; assay: Counterscreen for agonists of the human trace amine associated receptor 1 (hTAAR1): Fluorescence-based cell-based high throughput dose response assay to identify hTAAR1 agonist that also desensitize TAAR1 receptor response.; type: functional
[6] = molecular target: T3, Long-chain-fatty-acid--AMP ligase FadD28 (Mycobacterium tuberculosis, UniProt P9WQ59); assay: Fluorescence polarization aasay to screen for inhibitors that compete for the binding of FadD28 to a bisubstrate Measured in Biochemical System Using Plate Reader - 2147-01_Inhibitor_Dose_CherryPick_Activity.; type: functional, Mycobacterium tuberculosis H37Rv
T3 sequence (P9WQ59 whole entry): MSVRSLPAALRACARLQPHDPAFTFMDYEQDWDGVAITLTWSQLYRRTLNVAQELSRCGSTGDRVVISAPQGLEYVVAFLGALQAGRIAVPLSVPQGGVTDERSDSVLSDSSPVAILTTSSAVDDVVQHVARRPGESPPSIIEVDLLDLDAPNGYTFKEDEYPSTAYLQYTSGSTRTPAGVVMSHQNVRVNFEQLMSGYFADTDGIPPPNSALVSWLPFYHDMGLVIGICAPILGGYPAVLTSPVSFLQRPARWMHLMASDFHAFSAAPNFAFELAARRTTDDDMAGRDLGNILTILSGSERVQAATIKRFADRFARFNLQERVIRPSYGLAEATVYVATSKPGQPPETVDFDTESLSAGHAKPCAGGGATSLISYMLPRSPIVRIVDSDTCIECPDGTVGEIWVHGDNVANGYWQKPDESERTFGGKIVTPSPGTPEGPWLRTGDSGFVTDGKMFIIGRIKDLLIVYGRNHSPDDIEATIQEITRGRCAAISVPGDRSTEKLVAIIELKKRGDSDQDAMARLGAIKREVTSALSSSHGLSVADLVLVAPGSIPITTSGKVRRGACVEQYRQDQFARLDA

[7] = molecular target: T4, Rac GTPase-activating protein 1 (Homo sapiens, UniProt Q9H0H5); assay: MgcRacGAP GTPase-activating activity inhibitors, confirmation, biochemical, ADP Hunter fluorescence, primary and confirmatory (AID 624330); type: functional
T4 sequence (Q9H0H5 whole entry): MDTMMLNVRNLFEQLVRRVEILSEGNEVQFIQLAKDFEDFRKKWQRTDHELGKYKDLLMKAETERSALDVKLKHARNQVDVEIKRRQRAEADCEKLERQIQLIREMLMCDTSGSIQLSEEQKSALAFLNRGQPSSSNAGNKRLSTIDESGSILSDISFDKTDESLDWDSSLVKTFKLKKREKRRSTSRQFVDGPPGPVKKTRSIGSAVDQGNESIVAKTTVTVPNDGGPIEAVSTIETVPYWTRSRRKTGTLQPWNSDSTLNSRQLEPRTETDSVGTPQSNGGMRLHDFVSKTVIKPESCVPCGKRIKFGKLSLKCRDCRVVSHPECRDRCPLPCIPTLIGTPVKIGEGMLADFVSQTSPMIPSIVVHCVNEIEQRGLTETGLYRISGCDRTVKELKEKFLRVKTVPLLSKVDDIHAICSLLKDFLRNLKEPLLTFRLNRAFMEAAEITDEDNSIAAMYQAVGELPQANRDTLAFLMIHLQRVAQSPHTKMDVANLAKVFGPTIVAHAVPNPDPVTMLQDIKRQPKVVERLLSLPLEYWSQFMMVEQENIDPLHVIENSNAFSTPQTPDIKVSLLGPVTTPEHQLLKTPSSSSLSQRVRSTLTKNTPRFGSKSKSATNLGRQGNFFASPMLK

Large T antigen = Large T antigen (Simian virus 40, UniProt P03070); type: functional, Betapolyomavirus macacae;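 note: Confirmatory-stage PubChem screen for compounds that inhibit SV40 T antigen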
Chain of Large T antigen (P03070 whole entry): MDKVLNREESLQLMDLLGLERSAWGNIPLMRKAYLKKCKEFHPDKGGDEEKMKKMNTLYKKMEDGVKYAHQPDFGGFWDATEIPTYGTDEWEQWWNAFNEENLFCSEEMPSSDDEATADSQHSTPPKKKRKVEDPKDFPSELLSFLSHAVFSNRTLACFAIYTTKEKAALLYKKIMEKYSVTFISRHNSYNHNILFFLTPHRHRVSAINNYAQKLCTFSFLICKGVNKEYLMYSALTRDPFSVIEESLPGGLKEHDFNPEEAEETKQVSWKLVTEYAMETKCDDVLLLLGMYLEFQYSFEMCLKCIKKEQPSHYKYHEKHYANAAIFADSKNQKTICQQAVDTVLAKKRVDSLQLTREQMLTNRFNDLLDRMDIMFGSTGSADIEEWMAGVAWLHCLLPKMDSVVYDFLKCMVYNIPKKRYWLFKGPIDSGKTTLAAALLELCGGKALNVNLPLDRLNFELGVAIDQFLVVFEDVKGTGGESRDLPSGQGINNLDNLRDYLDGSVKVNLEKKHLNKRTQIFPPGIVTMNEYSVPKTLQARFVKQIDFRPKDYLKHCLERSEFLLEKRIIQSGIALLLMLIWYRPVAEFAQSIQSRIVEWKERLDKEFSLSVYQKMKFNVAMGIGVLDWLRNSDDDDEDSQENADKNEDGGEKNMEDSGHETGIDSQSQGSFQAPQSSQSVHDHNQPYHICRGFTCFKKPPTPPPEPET

[8] = cytotoxicity toward DRD oncogenic fibroblasts, dose response, cell-based, non-viral oncogenic, luminescence (AID 1934); type: functional; details: Homo sapiens
BJ [9] = assay: cytotoxicity toward BJ-TERT fibroblasts, dose response, cell-based, RAS-independent, luminescence (AID 1933); type: functional; details: Homo sapiens
Streptococcus = assay: Group A Streptococcus viability loss, dose response, counter-screen for streptokinase expression inhibitor project, luminescence, BacTiterGlo (AID 1915); type: functional, organism-based;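 note: potency for reduction of bacterial viability or growth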
BJ [10] = assay: cytotoxicity toward BJ-TERT-LT-ST fibroblasts, dose response, cell-based, RAS-independent, luminescence (AID 1935); type: functional; details: Homo sapiens;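 note: BJ fibroblasts immortalized with TERT plus LT and ST oncogenes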
Streptokinase A = molecular target: T5, Streptokinase A (Streptococcus pyogenes serotype M1, UniProt P10520); assay: S. pyogenes streptokinase expression inhibitors, potency, dose response, plasminogen activation absorbance, OD405 (AID 1914); type: functional, Streptococcus pyogenes M1 GAS;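 note: secreted streptokinase activity via plasminogen activation per viability signal from cell pellet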
T5 sequence (P10520 whole entry): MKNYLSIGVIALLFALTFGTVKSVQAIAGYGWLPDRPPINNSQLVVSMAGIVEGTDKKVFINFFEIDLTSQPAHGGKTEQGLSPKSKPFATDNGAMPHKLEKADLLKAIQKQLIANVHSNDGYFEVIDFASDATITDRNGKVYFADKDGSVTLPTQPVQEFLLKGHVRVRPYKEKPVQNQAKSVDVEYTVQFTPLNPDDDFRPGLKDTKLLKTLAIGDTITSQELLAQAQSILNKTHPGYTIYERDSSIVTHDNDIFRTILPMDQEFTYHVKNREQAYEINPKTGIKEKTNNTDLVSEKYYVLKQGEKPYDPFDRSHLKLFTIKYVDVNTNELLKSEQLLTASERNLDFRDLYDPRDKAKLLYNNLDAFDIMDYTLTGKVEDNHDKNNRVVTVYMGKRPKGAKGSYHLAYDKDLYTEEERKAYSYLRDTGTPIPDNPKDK

[11] = molecular target: Luciferin 4-monooxygenase (Photinus pyralis, UniProt P08659); assay: firefly luciferase enzyme inhibitors, dose response, biochemical, luminescence (AID 1891)
Chain of Luciferin 4-monooxygenase (P08659 whole entry): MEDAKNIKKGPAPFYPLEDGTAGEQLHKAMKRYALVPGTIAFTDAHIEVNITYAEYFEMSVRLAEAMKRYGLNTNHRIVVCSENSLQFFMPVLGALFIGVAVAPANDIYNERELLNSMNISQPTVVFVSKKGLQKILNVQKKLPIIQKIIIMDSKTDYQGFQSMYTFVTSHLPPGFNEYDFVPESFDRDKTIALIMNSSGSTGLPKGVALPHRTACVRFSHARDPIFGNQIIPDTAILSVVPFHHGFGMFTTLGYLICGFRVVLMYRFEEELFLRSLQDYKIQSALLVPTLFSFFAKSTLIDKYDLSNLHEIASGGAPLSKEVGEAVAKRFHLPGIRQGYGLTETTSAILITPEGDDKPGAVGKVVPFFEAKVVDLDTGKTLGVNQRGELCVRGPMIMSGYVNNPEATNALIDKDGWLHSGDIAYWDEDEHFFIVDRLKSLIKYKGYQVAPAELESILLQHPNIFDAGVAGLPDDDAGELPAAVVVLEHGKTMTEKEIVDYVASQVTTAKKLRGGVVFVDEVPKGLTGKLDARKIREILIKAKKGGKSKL

cells [12] = type: functional, cell-based; remark: listed apart in the source
[13] = system: Streptococcus sp. 'group A'; assay: growth inhibition of control SK(-) GAS strain, dose response, counter-screen for streptokinase expression inhibitor project, luminescence, kanamycin, BacTiterGlo, confirmation (AID 1900); type: functional, organism-based
BJ [14] = assay: cells; type: functional, cell-based; details: Homo sapiens
[15] = Luminescence Cell-Based Dose Confirmation HTS to Identify Inhibitors of Platelet Dense Granule Release. [Related pubchem assays: 1663 (Primary HTS), 1678 (Summary of Project)]; type: functional
[16] = molecular target: T6, Nuclear receptor subfamily 0 group B member 1 (Homo sapiens, UniProt P51843); type: functional, cell-based;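 note: HEK293T cells transfected with SF-1 and DAX-1 plus StAR promoter luciferase reporter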
T6 sequence (P51843 whole entry): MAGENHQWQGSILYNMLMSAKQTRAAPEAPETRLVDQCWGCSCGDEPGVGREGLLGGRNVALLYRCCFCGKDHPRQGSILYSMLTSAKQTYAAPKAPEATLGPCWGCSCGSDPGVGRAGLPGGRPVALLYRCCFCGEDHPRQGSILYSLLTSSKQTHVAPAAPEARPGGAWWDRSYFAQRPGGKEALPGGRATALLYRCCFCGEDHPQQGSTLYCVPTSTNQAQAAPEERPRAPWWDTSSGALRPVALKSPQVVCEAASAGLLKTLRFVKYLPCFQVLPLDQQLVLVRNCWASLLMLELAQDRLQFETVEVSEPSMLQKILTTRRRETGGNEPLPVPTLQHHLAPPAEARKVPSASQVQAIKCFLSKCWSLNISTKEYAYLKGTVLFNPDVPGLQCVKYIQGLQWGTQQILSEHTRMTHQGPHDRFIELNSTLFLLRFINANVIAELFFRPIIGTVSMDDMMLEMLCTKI

Mu-type opioid receptor = Mu-type opioid receptor (Homo sapiens, UniProt P35372); type: functional, cell-based;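 note: U2OS cells with beta-arrestin recruitment to OPRM1 by beta-gal complementation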
Chain of Mu-type opioid receptor (P35372 whole entry): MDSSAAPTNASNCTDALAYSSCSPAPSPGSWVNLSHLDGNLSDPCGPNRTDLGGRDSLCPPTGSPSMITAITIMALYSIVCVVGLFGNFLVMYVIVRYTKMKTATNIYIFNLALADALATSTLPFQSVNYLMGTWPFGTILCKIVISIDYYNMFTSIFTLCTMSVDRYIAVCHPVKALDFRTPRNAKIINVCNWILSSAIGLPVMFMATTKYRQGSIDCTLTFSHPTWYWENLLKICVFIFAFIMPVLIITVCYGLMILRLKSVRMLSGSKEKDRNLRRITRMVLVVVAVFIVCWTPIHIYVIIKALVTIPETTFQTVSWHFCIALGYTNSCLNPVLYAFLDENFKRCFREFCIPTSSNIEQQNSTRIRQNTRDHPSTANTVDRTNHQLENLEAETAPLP

[17] = molecular target: 5-hydroxytryptamine receptor 2A (Mus musculus, UniProt P35363); type: functional, cell-based;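 note: CHO-K1 cells with tagged receptor and beta-arrestin; agonist potency measured as compound-induced activation of the receptor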
Chain of 5-hydroxytryptamine receptor 2A (P35363 whole entry, the tested form may be a part): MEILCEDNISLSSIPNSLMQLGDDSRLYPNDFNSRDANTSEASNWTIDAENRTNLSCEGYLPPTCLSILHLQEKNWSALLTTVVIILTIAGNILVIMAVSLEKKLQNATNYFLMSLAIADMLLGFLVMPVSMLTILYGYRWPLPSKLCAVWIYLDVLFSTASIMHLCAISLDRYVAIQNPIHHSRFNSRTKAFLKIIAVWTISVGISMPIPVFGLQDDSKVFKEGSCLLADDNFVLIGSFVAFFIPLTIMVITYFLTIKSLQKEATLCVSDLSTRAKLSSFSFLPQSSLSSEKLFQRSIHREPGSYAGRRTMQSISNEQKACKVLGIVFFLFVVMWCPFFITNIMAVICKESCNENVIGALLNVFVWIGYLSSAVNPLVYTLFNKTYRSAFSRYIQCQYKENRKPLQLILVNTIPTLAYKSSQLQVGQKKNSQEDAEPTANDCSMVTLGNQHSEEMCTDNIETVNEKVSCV

[18] = off-target signal loss in HeLa-CEM21 co-culture – HeLa F-luc CTL cells, cherry-picked, counter-screen for HIV-1 Env fusion inhibitor project, dose response (AID 652040); type: functional, cell-based;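 note: potency for signal decrease marking cytotoxic or nonspecific inhibition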
[19] = ZM109 Env clade C HIV-1 fusion inhibitors, dose response, HeLa effector, CEM target cells, luciferase, cherry-pick (AID 652058); type: functional, cell-based
[20] = inhibitors of HIV Env-driven cell fusion, dose response, cherry-pick (AID 652057); type: functional, cell-based
[21] = inhibitors of clade B AD8 Env fusion, dose response, cell-based, cherry-pick (AID 652062); type: functional;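 note: luciferase signal from cell-cell fusion driven by HIV-1 clade B AD8 Env; potency is for inhibitors of fusion seen as a drop in luminescence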
[22] = CEM21 lymphoblast cell cytotoxicity, dose response, cytotoxicity control for viral fusion inhibitor project, CellTiter-Glo luminescence, cherry-picked (AID 652042); type: functional, cell-based;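 note: potency for signal decrease meaning cytotoxicity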
[23] = molecular target: FAD-linked sulfhydryl oxidase ALR (Homo sapiens, UniProt P55789); assay: inhibitors of human ALR sulfhydryl oxidase, dose response, biochemical, H2O2 detection, luminescence, cherry-pick (AID 493248)
Chain of FAD-linked sulfhydryl oxidase ALR (P55789 whole entry): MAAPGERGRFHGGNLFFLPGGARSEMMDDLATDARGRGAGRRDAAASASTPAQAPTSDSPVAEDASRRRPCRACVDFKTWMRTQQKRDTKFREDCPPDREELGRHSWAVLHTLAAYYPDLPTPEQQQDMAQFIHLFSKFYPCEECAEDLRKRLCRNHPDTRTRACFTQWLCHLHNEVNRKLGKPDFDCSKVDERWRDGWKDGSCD

## O=C(CCN1CCc2ccccc2C(c2ccccc2)C1)c1ccc2c(c1)OCCO2 (stereo not given)
[1]
  EC50: 4.51 µM (active)
Cells [2]
  EC50: > 29.9 µM (inactive)
[3]
  EC50: > 260 µM (inactive)
Cells [4]
  IC50: > 29.9 µM (inactive)
[5]
  IC50: 9.28 µM (active)

## OC1CCN(C(S)=Nc2ccc(Nc3ccccc3)cc2)CC1
[6]
  AC50: > 100 µM (inactive)
[7]
  IC50: 38.7 µM (active)
Large T antigen
  IC50: 6.93 µM (active)

## O=Nc1c2cc(-c3ccccc3)n[nH]c-2c2ccccc12
[8]
  EC50: 4.14 µM (active)
BJ [9]
  EC50: 6.53 µM (active)
Streptococcus
  EC50: 14.7 µM (active)
BJ [10]
  EC50: > 150 µM (not active)
Streptokinase A
  EC50: > 150 µM (not active)
[11]
  EC50: 0.222 µM (active)
Cells [12]
  IC50: > 67.5 µM (inactive)
[13]
  EC50: 5.57 µM (active)
BJ [14]
  EC50: 6.29 µM (active)
[15]
  EC50: 1.47 µM (active)
[16]
  IC50: > 0.833 µM (active)

## COc1cccc(CN2CCN(c3ncccn3)CC2)c1OC
Mu-type opioid receptor
  EC50: 92.5 µM (inactive)
[17]
  EC50: 21.6 µM (inactive)

## OCC1(Cc2cccc(C(F)(F)F)c2)CCN(Cc2cc3ccccc3o2)CC1
[3]
  EC50: > 260 µM (inactive)
Mu-type opioid receptor
  EC50: 92.5 µM (inactive)
[17]
  EC50: 3.6 µM (active)

## O=C(CSc1cccc[n+]1[O-])c1ccc(-c2ccccc2)cc1
Cells [12]
  IC50: > 67.5 µM (inactive)
[16]
  IC50: > 67.5 µM (inactive)

## C(=C\c1ccccc1)/CN1CCN(C(c2nnnn2-c2ccc3c(c2)OCCO3)C2CC2)CC1 (stereo not given)
Mu-type opioid receptor
  EC50: 92.3 µM (inactive)
[17]
  EC50: 76 µM (inactive)

## Cc1cnc(C)c(Nc2nc(C(N)Cc3ccc(C(F)(F)F)cc3)cs2)n1 (stereo not given)
[18]
  AC50: 5.07 µM (active)
[19]
  AC50: 10.5 µM (active)
[20]
  AC50: 5.44 µM (active)
[21]
  AC50: 7.29 µM (active)
[22]
  AC50: 18.1 µM (active)

## O=C(O)c1cccc2c1-c1ccccc1/C2=N\Nc1ccccc1
[6]
  AC50: > 100 µM (inactive)
[23]
  AC50: 0.264 µM (active)
